Measurements from patent US6887896B1, “7-[(7-Alkoxy)-chrom-3-en-6-yl]-heptatrienoic acid and 7-[(3-alkoxy)-5,6-dihydronaphthalen-2-yl]-heptatrienoic acid derivatives having serum glucose reducing activity” (Allergan, Inc., priority 2003, dated 2005).

Legend:
RARγ = biological target: T1, RARγ (Homo sapiens, UniProt P13631); assay: ligand binding assay, RARγ; settings: for Ki: read-out: RAR Bind. Ki γ; for Kd: Table 9 (Formula F), read-out: RAR γ Kd
T1 sequence (P13631 1-454): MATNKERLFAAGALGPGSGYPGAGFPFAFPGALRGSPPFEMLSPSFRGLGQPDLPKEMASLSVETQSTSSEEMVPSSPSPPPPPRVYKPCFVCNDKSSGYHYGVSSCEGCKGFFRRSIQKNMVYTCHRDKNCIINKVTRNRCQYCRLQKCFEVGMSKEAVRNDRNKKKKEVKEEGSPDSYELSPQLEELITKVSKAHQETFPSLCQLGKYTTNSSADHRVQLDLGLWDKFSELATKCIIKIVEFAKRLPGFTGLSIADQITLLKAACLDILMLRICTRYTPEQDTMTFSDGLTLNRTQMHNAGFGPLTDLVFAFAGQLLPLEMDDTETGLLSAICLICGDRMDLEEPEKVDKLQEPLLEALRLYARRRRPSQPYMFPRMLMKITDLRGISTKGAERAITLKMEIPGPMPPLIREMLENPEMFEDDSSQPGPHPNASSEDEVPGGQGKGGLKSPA
From the text: (§1) Specifically, one such assay is a chimeric receptor transactivation assay which tests for agonist-like activity in the R RAPE and RAR7 receptor subtypes, and which is based on work published by Feigner, P. L. and Holm, M (1989) Focus, 112 is described in detail in U.S. Pat. No. 5,455,265. The specification of U.S. Pat. No. 5,455,265 is hereby expressly incorporated by reference. A holoreceptor transactivation assay and a ligand binding assay which measure the antagonist/agonist like activity of the compounds of the invention, or their ability to bind to the several retinoid receptor subtypes, respectively, are described in published PCT Application No. WO WO93/11755 (particularly on pages 30-33 and 37-41) published on Jun. 24, 1993, the specification of which is also incorporated herein by reference. A detailed experimental procedure for holoreceptor transactivations has been described by Heyman et al. Cell 68, 397-406, (1992); Allegretto et al. J. Biol. Chem. 268, 26625-26633, and Mangelsdorf et al. The Retinoids: Biology, Chemistry and Medicine, pp 319-349, Raven Press Ltd., New York, which are expressly incorporated herein by reference. The results obtained in this assay are expressed in EC50 numbers, as they are also in the chimeric receptor transactivation assay. The results of the ligand binding assay are expressed in Ki numbers. (See Cheng et al. Biochemical Pharmacology Vol. 22 pp 3099-3108, expressly incorporated herein by reference.)
(§2) Generally speaking, in the tables disclosing the results of transactivation and binding assays the numbers in parentheses indicate efficacy as a percentage compared to the standard compound, (2E,4E,1′S,2′S)-3-methyl-5-[2′-methyl-2′-(5,5,8,8-tetramethyl-5,6,7,8-tetrahydro-naphthalen-2-yl)cyclopropyl]-penta-2,4-dienoic acid and the other numbers indicate the measured EC50 and K; in nanomolar concentration.

RXRβ [1] = biological target: T2, RXRβ (UniProt P28704); assay: holoreceptor transactivation assay, RXRβ; format: cell-based; settings: for EC50: holoreceptor transactivation, read-out: RXR Trans. EC50 β; for RXR Trans. efficacy (number in parentheses) β: percentage compared to the standard compound
T2 sequence (P28704 1-520): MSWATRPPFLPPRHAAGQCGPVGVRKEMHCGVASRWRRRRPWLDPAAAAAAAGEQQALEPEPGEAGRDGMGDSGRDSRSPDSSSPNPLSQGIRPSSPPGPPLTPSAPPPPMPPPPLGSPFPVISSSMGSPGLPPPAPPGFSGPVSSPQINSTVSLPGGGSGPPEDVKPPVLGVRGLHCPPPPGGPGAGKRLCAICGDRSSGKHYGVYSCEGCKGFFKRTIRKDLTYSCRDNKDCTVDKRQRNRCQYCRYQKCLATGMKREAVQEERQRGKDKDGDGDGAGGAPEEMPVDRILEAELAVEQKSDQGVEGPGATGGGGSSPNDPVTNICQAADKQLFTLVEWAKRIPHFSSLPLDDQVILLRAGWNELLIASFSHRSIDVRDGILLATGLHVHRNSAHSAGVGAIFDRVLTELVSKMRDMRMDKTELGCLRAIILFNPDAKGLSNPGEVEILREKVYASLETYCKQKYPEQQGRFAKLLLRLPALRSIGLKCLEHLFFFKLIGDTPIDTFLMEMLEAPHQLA
From the text: as §1
Efficacy in a transactivation assay is expressed as a percentage of the maximum potency attained by the compound compared to a standard which, in this case, is the compound named (2E,4E,1′S,2′S)-3-methyl-5-[2′-methyl-2′-(5,5,8,8-tetramethyl-5,6,7,8-tetrahydro-naphthalen-2-yl)-cyclopropyl]-penta-2,4-dienoic acid. This standard compound is described in U.S. Pat. No. 6,114,533.
The specification of this application for patent is organized in several sections in accordance with structural Formulas A through F each of which discloses a group of preferred compounds within the scope of the invention. Tables that disclose the activity of certain exemplary compounds of the invention in the above-described RXR receptor transactivation and binding assays are found in the corresponding sections. […] The transactivation data pertaining to the activation of RXR receptors were obtained in the holoreceptor assay.
as §2

RARα = biological target: T3, RARα (Homo sapiens, UniProt P10276); assay: ligand binding assay, RARα; settings: for Ki: read-out: RAR Bind. Ki α; for Kd: Table 9 (Formula F), read-out: RAR α Kd
T3 sequence (P10276 1-462): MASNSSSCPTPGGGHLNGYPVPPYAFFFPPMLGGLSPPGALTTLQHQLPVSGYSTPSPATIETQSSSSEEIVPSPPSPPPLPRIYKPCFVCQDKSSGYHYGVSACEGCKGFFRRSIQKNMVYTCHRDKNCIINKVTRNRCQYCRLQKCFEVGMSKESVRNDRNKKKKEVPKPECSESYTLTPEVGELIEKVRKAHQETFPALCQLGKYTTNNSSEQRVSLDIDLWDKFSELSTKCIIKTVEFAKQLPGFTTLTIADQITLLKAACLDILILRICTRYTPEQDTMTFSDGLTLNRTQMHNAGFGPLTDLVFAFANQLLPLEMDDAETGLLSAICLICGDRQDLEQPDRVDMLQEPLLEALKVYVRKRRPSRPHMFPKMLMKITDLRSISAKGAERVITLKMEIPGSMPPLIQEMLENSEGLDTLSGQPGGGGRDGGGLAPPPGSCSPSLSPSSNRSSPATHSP
From the text: as §1, §2

RXRβ [2] = biological target: T2, RXRβ; assay: ligand binding assay, RXRβ; settings: for Ki: read-out: RXR Bind Ki β; for Kd: Table 9 (Formula F), read-out: RXR β Kd
From the text: as §1, §2

Row | SMILES | Ki (RARγ) [nM] | EC50 (RXRβ [1]) [nM] | RXR Trans. efficacy (number in parentheses) β (RXRβ [1]) [%] | Ki (RARα) [nM] | Ki (RXRβ [2]) [nM] | Kd (RARγ) [nM] | Kd (RARα) [nM] | Kd (RXRβ [2]) [nM]
1 | COc1c(\C(C)=C(F)/C=C/C(C)=C/C(=O)O)cc2c(c1Cl)OC(C)(C)C=C2C(C)C [Compound 170, 7-(8-Chloro-4-isopropyl-7-methoxy-2,2-dimethyl-2H-chromen-6-yl)-6-fluoro-3-methyl-octa-2E,4E,6E-trienoic acid] | 5300 | 0.8 | 88 | 3400 | 7 |  |  | 
2 | CCOc1c(\C(C)=C(F)/C=C/C(C)=C/C(=O)O)cc2c(c1Cl)OC(C)(C)C=C2C(C)C [Compound 172, 7-(8-Chloro-4-isopropyl-7-ethoxy-2,2-dimethyl-2H-chromen-6-yl)-6-fluoro-3-methyl-octa-2E,4E,6E-trienoic acid] | 1400 | 52 | 45 | 404 | 85 |  |  | 
3 | CCOc1c(\C(CC)=C(F)/C=C/C(C)=C/C(=O)O)cc2c(c1Cl)OC(C)(C)C=C2C(C)C [Compound 173] | 2400 | 18 | 21 | 102 | 36 |  |  | 
4 | CC(/C=C/C(F)=C(/C)c1cc2c(c(Cl)c1OC(C)C)OC(C)(C)C=C2C(C)C)=C\C(=O)O [Compound 174] | 3400 | 527 | 12 | 532 | 319 |  |  | 
5 | CCOc1cc2c(cc1\C(=C/C=C/C(C)=C/C(=O)O)CC)C(C)=CCC2(C)C [Compound A-16, 7-(3-Ethoxy-5,5,8-trimethyl-5,6-dihydronaphthalen-2-yl)-3-methyl-nona-2E,4E,6Z-trienoic acid] | 3800 | 191 | 37 | 578 | 49 |  |  | 
6 | CCOc1cc2c(cc1\C(C)=C/C=C/C(C)=C/C(=O)O)C(C(C)(C)C)=CCC2(C)C [Compound A-17, 7-(8-tert-Butyl-3-ethyloxy-5,5-dimethyl-5,6-dihydronaphthalen-2-yl)-3-methyl-octa-2E,4E,6Z-trienoic acid] | 1900 | 3.2 | 72 | 861 | 16 |  |  | 
7 | CCOc1cc2c(cc1\C(=C/C=C/C(C)=C/C(=O)O)CC)C(C(C)(C)C)=CCC2(C)C [Compound A-18, 7-(8-tert-butyl-3-ethyoxy-5,5-dimethyl-5,6-dihydronaphthalen-2-yl)-3-methyl-nona-2E,4E,6Z-trienoic acid] | 537 | 11 | 21 | 442 | 31 |  |  | 
8 | CCOc1cc2c(cc1\C(C)=C(F)/C=C/C(C)=C/C(=O)O)C=CCC2(C)C [Compound A-76, (2E,4E,6E)-7-(3-Ethoxy-5,5-dimethyl-5,6-dihydro-naphthalen-2-yl)-6-fluoro-3-methyl-octa-2,4.6-trienoic acid] | 9200 | 368 | 128 | 1600 | 347 |  |  | 
9 | CCOc1cc2c(cc1\C(C)=C(F)/C=C/C(C)=C/C(=O)O)C(C(C)C)=CCC2(C)C [Compound A-79, (2E,4E,6E)-6-Fluoro-3-(4,4-dimethylethoxy-1-isopropyl-3,4-dihydronaphthalen-7-yl)-3-methyl-2.4,6-octa-trienoic acid] | 3500 | 4 | 60 | 615 | 13 |  |  | 
10 | CCOc1cc2c(cc1\C(C)=C(F)/C=C/C(C)=C/C(=O)O)C(C(C)(C)C)=CCC2(C)C [Compound A-82, (2E,4E,6E)-6-Fluoro-3-(4,4-dimethyl-6-ethoxy-1-tert-butyl-3,4 dihydronaphthalen-7-yl)-3-methyl-2,4,6-octa-trienoic acid] | 1400 | 4 | 41 | 387 | 14 |  |  | 
11 | CCOc1cc2c(cc1\C(CC)=C(F)/C=C/C(C)=C/C(=O)O)C(C(C)(C)C)=CCC2(C)C [Compound A-83, (2E,4E,6E)-7-(8-tert-Butyl-3-ethoxy-5,5-dimethyl-5,6-dihydronaphthalen-2-yl)-6-fluoro-3-methyl-nona-2,4,6-trienoic acid] | 698 | 7 | 17 | 394 | 12 |  |  | 
12 | CCOc1c(\C(C)=C(F)/C=C/C(C)=C/C(=O)O)cc2c(c1Br)C(C)(C)CC=C2C(C)C [Compound A-169, (2E,4E,6E)-7-(4-Bromo-3-ethoxy-8-isopropyl-5,5-dimethyl-5,6-dihydro-naphthalen-2-yl)-6-fluoro-3-methyl-octa-2.4,6-trienoic acid] |  | 2.2 | 68 |  |  | 1000 | 70 | 16
13 | CCOc1c(\C(CC)=C(F)/C=C/C(C)=C/C(=O)O)cc2c(c1Br)C(C)(C)CC=C2C(C)C [Compound A-170, (2E,4E,6E)-7-(4-Bromo-3-ethoxy-8-isopropyl-5,5-dimethyl-5,6-dihydro-naphthalen-2-yl)-6-fluoro-3-methyl-nona-2,4,6-trienoic acid] |  | 1 | 59 |  |  | 507 | 12 | 14
14 | CC(/C=C/C(F)=C(/C)c1cc2c(c(Br)c1OC(C)C)C(C)(C)CC=C2C(C)C)=C\C(=O)O [Compound A-172, (2E,4E,6E)-7-(4-Bromo-3-isopropoxy-8-isopropyl-5,5-dimethyl-5,6-dihydro-naphthalen-2-yl)-6-fluoro-3-methyl-octa-2,4,6-trienoic acid] |  | 83 | 39 |  |  | 834 | 141 | 41
